For 16 compounds, inhibition results are on record in paper PMC11775380, “Discovery of Novel Nav1.7-Selective Inhibitors with the 1H-Indole-3-Propionamide Scaffold for Effective Pain Relief” (Research, 2025).

T1 sequence (Q15858 whole entry): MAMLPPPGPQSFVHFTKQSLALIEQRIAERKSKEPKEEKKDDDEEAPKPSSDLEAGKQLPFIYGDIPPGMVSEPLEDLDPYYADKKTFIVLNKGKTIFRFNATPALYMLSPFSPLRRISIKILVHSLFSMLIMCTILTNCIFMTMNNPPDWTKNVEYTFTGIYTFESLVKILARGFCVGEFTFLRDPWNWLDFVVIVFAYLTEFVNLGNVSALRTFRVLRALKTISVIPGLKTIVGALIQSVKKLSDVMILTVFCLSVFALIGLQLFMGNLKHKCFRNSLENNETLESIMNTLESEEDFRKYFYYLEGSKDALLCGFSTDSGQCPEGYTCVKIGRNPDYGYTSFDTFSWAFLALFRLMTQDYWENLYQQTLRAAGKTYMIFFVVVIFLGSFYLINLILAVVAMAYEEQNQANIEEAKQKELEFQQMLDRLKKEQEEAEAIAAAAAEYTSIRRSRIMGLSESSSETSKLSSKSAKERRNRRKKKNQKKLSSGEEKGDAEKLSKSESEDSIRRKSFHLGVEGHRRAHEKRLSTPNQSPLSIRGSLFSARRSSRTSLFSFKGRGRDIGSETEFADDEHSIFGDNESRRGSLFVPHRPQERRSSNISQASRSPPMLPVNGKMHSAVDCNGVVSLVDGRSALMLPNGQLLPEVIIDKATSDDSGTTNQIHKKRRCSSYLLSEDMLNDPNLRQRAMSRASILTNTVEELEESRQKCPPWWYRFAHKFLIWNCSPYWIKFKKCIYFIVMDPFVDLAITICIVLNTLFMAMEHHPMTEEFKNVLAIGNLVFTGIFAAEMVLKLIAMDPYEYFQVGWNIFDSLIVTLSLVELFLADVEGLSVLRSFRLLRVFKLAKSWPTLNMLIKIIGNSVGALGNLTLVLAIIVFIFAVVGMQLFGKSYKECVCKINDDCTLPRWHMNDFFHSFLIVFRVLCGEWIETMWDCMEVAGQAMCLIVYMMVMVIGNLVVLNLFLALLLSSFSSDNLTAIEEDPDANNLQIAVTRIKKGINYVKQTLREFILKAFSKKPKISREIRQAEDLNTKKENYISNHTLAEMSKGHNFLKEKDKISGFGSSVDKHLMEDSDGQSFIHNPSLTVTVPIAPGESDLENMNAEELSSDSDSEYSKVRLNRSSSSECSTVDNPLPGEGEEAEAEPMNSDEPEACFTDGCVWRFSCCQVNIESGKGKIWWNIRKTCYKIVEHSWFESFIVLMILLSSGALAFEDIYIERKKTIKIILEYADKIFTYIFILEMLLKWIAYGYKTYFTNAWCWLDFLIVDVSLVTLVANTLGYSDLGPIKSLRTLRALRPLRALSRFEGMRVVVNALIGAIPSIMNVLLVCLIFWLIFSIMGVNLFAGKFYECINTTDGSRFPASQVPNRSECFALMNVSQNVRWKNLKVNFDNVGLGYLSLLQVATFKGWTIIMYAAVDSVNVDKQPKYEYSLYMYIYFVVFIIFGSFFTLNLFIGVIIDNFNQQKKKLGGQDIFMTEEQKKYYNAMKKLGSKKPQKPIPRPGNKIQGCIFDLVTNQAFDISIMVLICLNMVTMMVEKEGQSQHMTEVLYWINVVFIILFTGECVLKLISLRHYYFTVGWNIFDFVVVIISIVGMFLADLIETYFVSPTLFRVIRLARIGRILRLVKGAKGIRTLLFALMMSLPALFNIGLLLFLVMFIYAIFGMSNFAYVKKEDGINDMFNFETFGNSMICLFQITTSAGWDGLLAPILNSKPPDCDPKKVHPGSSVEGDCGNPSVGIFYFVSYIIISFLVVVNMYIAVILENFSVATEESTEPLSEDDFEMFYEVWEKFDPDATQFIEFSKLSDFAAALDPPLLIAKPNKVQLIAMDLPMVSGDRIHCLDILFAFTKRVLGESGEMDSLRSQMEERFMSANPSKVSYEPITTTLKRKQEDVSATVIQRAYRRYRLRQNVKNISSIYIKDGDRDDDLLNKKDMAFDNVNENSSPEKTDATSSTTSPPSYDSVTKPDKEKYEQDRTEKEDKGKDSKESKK
T1 sequence (Q07699 19-218 partner): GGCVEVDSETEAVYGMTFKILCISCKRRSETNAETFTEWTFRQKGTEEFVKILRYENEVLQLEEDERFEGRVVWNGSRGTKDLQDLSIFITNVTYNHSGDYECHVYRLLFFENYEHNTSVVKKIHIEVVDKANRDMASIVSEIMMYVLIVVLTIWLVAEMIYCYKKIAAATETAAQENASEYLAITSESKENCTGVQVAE
T1 sequence (O60939 30-215 partner): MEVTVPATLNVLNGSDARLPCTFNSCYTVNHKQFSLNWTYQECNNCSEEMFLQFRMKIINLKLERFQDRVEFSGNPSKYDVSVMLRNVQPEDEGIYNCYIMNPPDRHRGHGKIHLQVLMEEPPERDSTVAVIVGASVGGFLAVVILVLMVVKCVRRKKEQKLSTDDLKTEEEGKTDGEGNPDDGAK

The test has as its target T1, human Nav1.7 (hNav1.7) (Homo sapiens, UniProt Q15858).
T1 construct: expressed in transfected cells; host or cells: HEK293T
Description: Whole-cell patch-clamp inhibition of Nav1.7 currents in transfected HEK293T cells. The class given is cell-based. As to conditions: HEK-293T; 10 μM compound; inhibition rate of Nav1.7; read-out: Inhibitory activity (10 μM). As to the method:
Human embryonic kidney (HEK) 293T (ATCC CRL-3216) and ND7/23 cells (National Collection of Authenticated Cell Cultures SCSP-5026) were cultured under standard conditions (5% CO2, 37 °C) in Dulbecco’s modified Eagle’s medium (DMEM) containing 10% fetal bovine serum and 1% penicillin-streptomycin solution(all from Gibco, Thermo Fisher Scientific, Waltham, MA, USA). When the cells reached 70% to 90% confluence, human Nav1.2 (hNav1.2), human Nav1.3 (hNav1.3), human Nav1.4 (hNav1.4), human Nav1.5 (hNav1.5), and mouse Nav1.6 (mNav1.6) channel plasmids were cotransfected with enhanced green fluorescent protein (eGFP) into HEK293T cells. Additionally, plasmids expressing β1 and β2 subunits tagged with eGFP were cotransfected with the human Nav1.7 (hNav1.7) channel into HEK293T cells. Human Nav1.8 (hNav1.8) was transiently transfected into ND7/23 cells, along with eGFP, using Lipofectamine 2000 (Invitrogen), adhering strictly to the manufacturer’s protocol. For manual patch-clamp experiments, the cells were plated onto glass coverslips and used within 20 to 48 h of transfection.
Whole-cell patch-clamp recordings were conducted at 25 ± 2 °C, utilizing an EPC 10USB patch-clamp amplifier (HEKA Elektronik, Lambrecht, Germany). Pipettes, with access resistance between 2.0 and 3.0 MΩ, were pulled from borosilicate glass capillary tubes using a 2-step vertical microelectrode puller (PC-10, Narishige Group, Tokyo, Japan). Voltage-clamp recordings were obtained with PatchMaster software v2 × 73 (HEKA Elektronik) 5 min after establishing whole-cell configuration, sampled at 20 kHz, and filtered at 5 kHz. To minimize voltage errors, 80% series resistance compensation was applied. Pipettes were filled with 140 mM CsF, 10 mM NaCl, 1 mM EGTA, and 10 mM HEPES (pH=7.4, adjusted with CsOH). The external solution contained 140 mM NaCl, 2 mM CaCl2, 1 mM MgCl2, 5 mM KCl, 10 mM HEPES, and 10 mM glucose (pH=7.4, adjusted with NaOH). IC50 values were determined in HEK293T or ND7/23 cell lines by voltage clamping at −80 mV, followed by stepping to the V1/2 of inactivation for 8 s to facilitate compound binding.
Background: In patch-clamp work, channel activity is measured electrically.
Take `O=C(CC(c1ccc(C(F)(F)F)cc1)c1cn(Cc2ccc(F)cc2)c2ccccc12)NCc1ccncc1` (stereo not shown) [B23, C1=CC=C2C(=C1)C(=CN2CC3=CC=C(C=C3)F)C(CC(=O)NCC4=CC=NC=C4)C5=CC=C(C=C5)C(F)(F)F]: the inhibition at 10 µM was determined as 18.2%.

With `O=C(CC(c1ccc(C(F)(F)F)cc1)c1cn(Cc2ccc(F)cc2)c2ccccc12)NCCN1CCOCC1` (stereo not shown) [B24, C1COCCN1CCNC(=O)CC(C2=CC=C(C=C2)C(F)(F)F)C3=CN(C4=CC=CC=C43)CC5=CC=C(C=C5)F], the inhibition at 10 µM was 16%. Take `O=C(CC(c1ccc(C(F)(F)F)cc1)c1cn(Cc2ccc(F)cc2)c2ccccc12)N1CCCC1` (stereo not shown) [B25, C1CCN(C1)C(=O)CC(C2=CC=C(C=C2)C(F)(F)F)C3=CN(C4=CC=CC=C43)CC5=CC=C(C=C5)F]: the inhibition at 10 µM was determined as 23.1%. On to `COc1cc(OC)cc(C(CC(=O)NCCc2ccccn2)c2cn(Cc3ccc(F)cc3)c3ccccc23)c1` (stereo not shown) [B26, COC1=CC(=CC(=C1)C(CC(=O)NCCC2=CC=CC=N2)C3=CN(C4=CC=CC=C43)CC5=CC=C(C=C5)F)OC], for which the inhibition at 10 µM was 26.1%. Regarding `O=C(CC(c1cccc(Cl)c1)c1cn(Cc2ccc(F)cc2)c2ccccc12)NCCc1ccccn1` (stereo not shown) [B27, C1=CC=C2C(=C1)C(=CN2CC3=CC=C(C=C3)F)C(CC(=O)NCCC4=CC=CC=N4)C5=CC(=CC=C5)Cl], the inhibition at 10 µM was 16%. Turning to `O=C(CC(c1cccc(Oc2ccccc2)c1)c1cn(Cc2ccc(F)cc2)c2ccccc12)NCCc1ccccn1` (stereo not shown) [B28, C1=CC=C(C=C1)OC2=CC=CC(=C2)C(CC(=O)NCCC3=CC=CC=N3)C4=CN(C5=CC=CC=C54)CC6=CC=C(C=C6)F], the inhibition at 10 µM was determined as 29.2%.

On to `COc1ccc(Cn2cc(C(CC(=O)NCCc3ccccn3)c3ccc(OC)cc3)c3ccccc32)cc1` (stereo not shown) [B29, COC1=CC=C(C=C1)CN2C=C(C3=CC=CC=C32)C(CC(=O)NCCC4=CC=CC=N4)C5=CC=C(C=C5)OC], for which the inhibition at 10 µM was determined as 9.42%. Turning to `COc1ccc(Cn2cc(C(CC(=O)NCCc3ccccn3)c3cccc(Cl)c3)c3ccccc32)cc1` (stereo not shown) [B30, COC1=CC=C(C=C1)CN2C=C(C3=CC=CC=C32)C(CC(=O)NCCC4=CC=CC=N4)C5=CC(=CC=C5)Cl], the inhibition at 10 µM stood at 8.62%. The same measure for `O=S(=O)(c1ccc(F)cc1)N(c1ccc2c(c1)OCO2)C1CCN(Cc2cccnc2)CC1` [B31, C1CN(CCC1N(C2=CC3=C(C=C2)OCO3)S(=O)(=O)C4=CC=C(C=C4)F)CC5=CN=CC=C5]: 16%; for `O=C(CC(c1ccc(C(F)(F)F)cc1)c1cn(Cc2ccccc2)c2ccccc12)NCCc1ccccn1` (stereo not shown) [B32, C1=CC=C(C=C1)CN2C=C(C3=CC=CC=C32)C(CC(=O)NCCC4=CC=CC=N4)C5=CC=C(C=C5)C(F)(F)F]: 16.6%; for `O=C(CC(c1cccc(C(F)(F)F)c1)c1cn(Cc2ccc(F)cc2)c2ccccc12)NCCc1ccccn1` (stereo not shown) [B33, C1=CC=C2C(=C1)C(=CN2CC3=CC=C(C=C3)F)C(CC(=O)NCCC4=CC=CC=N4)C5=CC(=CC=C5)C(F)(F)F]: 19.8%. Consider `CC(C)CNC(=O)CC(c1ccc(C(F)(F)F)cc1)c1cn(Cc2ccccc2)c2ccccc12` (stereo not shown) [B34, CC(C)CNC(=O)CC(C1=CC=C(C=C1)C(F)(F)F)C2=CN(C3=CC=CC=C32)CC4=CC=CC=C4], for which the inhibition at 10 µM was 13.4%. As to `O=C(CC(c1cccc(C(F)(F)F)c1)c1cn(Cc2ccc(F)cc2)c2ccccc12)NCc1ccncc1` (stereo not shown) [B35, C1=CC=C2C(=C1)C(=CN2CC3=CC=C(C=C3)F)C(CC(=O)NCC4=CC=NC=C4)C5=CC(=CC=C5)C(F)(F)F], the inhibition at 10 µM came out at 15.6%. On to `O=C(CC(c1ccc(C(F)(F)F)cc1)c1cn(Cc2ccccc2)c2ccccc12)NCc1ccncc1` (stereo not shown) [B36, C1=CC=C(C=C1)CN2C=C(C3=CC=CC=C32)C(CC(=O)NCC4=CC=NC=C4)C5=CC=C(C=C5)C(F)(F)F], for which the inhibition at 10 µM was found to be 17.2%.

`Cn1cc(C(CC(=O)NCCc2ccccn2)c2ccc(C(F)(F)F)cc2)c2ccccc21` (stereo not shown) [B38, CN1C=C(C2=CC=CC=C21)C(CC(=O)NCCC3=CC=CC=N3)C4=CC=C(C=C4)C(F)(F)F]: the inhibition at 10 µM amounted to 13.9%.

`O=C(C1CCCN1C(=O)c1csc(Nc2ccc(F)cc2)n1)N1CCOCC1` (stereo not shown) [B39, C1CC(N(C1)C(=O)C2=CSC(=N2)NC3=CC=C(C=C3)F)C(=O)N4CCOCC4]: the inhibition at 10 µM was 16.7%.
